For four compounds, EC50 results are on record in US7868008B2, “Substituted isoindolones and their use as metabotropic glutamate receptor potentiators” (AstraZeneca AB, priority 2005, dated 2011).

The target in this test is T1, human mGluR2 (Homo sapiens, UniProt Q14416).
T1 construct: chimeric mGluR2/CaR construct comprising the extracellular and transmembrane domains of human mGluR2 and the intracellular domain of the human calcium receptor, fused
Put plainly: mGluR2 potentiator assays described herein (FLIPR calcium mobilization in HEK 293 cells expressing chimeric mGluR2/CaR, or [35S]-GTPγS binding with CHO cell membranes). The following applies: assay not specified (FLIPR or [35S]-GTPγS); allosteric activator/potentiator activity at mGluR2. Format: cell-based. The source says: The pharmacological properties of the compounds of the invention can be analyzed using standard assays for functional activity. Examples of glutamate receptor assays are well known in the art as described in, for example, Aramori et al., 1992, Neuron, 8:757; Tanabe et al., 1992, Neuron, 8:169; Miller et al., 1995, J. Neuroscience, 15:6103; Balazs, et al., 1997, J. Neurochemistry, 1997, 69:151. The methodology described in these publications is incorporated herein by reference. Conveniently, the compounds of the invention can be studied by means of an assay that measures the mobilization of intracellular calcium, [Ca^2+]i in cells expressing mGluR2.
Fluorometric Imaging Plate Reader (FLIPR) analysis was used to detect allosteric activators of mGluR2 via calcium mobilization. A clonal HEK 293 cell line expressing a chimeric mGluR2/CaR construct comprising the extracellular and transmembrane domains of human mGluR2 and the intracellular domain of the human calcium receptor, fused to the promiscuous chimeric protein Gαqi5 was used. […] At 24-hours prior to analysis, the cells were trypsinized and plated in DMEM at 100,000 cells/well in black sided, clear-bottom, collagen I coated, 96-well plates. The plates were incubated under 5% CO2 at 37° C. overnight. Cells were loaded with 6 μM fluo-3 acetoxymethylester (Molecular Probes, Eugene Oreg.) for 60 minutes at room temperature. […]
FLIPR experiments were done using a laser setting of 0.8 W and a 0.4 second CCD camera shutter speed. […] An addition of test compound (0.01 μM to 30 μM in duplicate) was made after 10 seconds of baseline fluorescent readings were recorded on FLIPR. Fluorescent signals were then recorded for an additional 75 seconds at which point a second addition of DCG-IV (0.2 μM) was made and fluorescent signals were recorded for an additional 65 seconds. Fluorescent signals were measured as the peak height of the response within the sample period. Data was analyzed using Assay Explorer, and EC50 and Emax values (relative to maximum DCG-IV effect) were calculated using a four parameter logistic equation.
A [^35S]-GTPγS binding assay was used to functionally assay mGluR2 receptor activation. The allosteric activator activity of compounds at the human mGluR2 receptor were measured using a [^35S]-GTPγS binding assay with membranes prepared from CHO cells which stably express the human mGluR2. […] The GTPγS binding assay therefore provides a quantitative measure of receptor activation.
Membranes were prepared from CHO cells stably transfected with human mGluR2. […] The amount of radioactivity bound was determined by counting plates on the Packard TopCount. […]

T1 sequence (Q14416 19-819 limits assumed): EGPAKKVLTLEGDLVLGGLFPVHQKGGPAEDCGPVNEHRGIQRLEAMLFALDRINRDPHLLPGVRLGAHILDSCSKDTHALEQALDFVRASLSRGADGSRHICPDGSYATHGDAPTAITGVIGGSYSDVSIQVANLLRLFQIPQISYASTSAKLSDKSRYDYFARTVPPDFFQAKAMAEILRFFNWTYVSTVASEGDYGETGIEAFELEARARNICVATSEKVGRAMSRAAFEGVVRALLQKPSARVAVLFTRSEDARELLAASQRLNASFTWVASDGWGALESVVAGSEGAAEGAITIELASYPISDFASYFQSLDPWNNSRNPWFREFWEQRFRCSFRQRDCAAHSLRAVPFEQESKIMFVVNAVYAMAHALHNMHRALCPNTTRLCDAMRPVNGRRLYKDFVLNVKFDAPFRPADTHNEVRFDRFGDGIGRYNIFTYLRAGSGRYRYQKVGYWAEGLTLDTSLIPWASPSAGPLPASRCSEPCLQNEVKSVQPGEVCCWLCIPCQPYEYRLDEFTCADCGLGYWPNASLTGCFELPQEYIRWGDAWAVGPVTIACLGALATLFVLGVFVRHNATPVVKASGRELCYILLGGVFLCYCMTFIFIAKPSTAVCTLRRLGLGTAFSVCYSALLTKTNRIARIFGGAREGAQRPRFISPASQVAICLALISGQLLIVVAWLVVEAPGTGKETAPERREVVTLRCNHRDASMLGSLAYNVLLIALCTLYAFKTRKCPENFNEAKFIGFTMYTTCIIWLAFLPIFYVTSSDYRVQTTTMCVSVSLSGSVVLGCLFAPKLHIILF

Usually EC50 stands for the concentration at which the effect is half-maximal. In the case of `O=C1c2c(Cl)cc(-c3noc(CN4CCC(F)CC4)n3)cc2CN1Cc1ccc(OC(F)(F)F)cc1` [Example 8.3, 7-Chloro-5-[5-(4-fluoro-piperidin-1-ylmethyl)-[1,2,4]oxadiazol-3-yl]-2-(4-trifluoromethoxy-benzyl)-2,3-dihydro-isoindol-1-one], the EC50 stood at 75 nM.
Then `Cc1cc(-c2nc(CN3CCN(C=O)CC3)no2)cc2c1C(=O)N(Cc1ccc(OC(F)(F)F)cc1)C2` [Example 10.4, 4-{5-[7-Methyl-1-oxo-2-(4-trifluoromethoxy-benzyl)-2,3-dihydro-1H-isoindol-5-yl]-[1,2,4]oxadiazol-3-ylmethyl}-piperazine-1-carbaldehyde], with 230 nM.
Then `Cc1cc(CC2CCN(Cc3ccccc3F)CC2)cc2c1C(=O)N(CC1CC1)C2` [Example 11, 2-Cyclopropylmethyl-5-[1-(2-fluorobenzyl)-piperidin-4-ylmethyl]-7-methyl-2,3-dihydro-isoindol-1-one], with 84 nM; and `Cc1cc(CC2CCN(Cc3ccc(F)cc3)CC2)cc2c1C(=O)N(CC1CCCCC1)C2` [Example 13.7, 2-Cyclohexylmethyl-5-[1-(4-fluoro-benzyl)-piperidin-4-ylmethyl]-7-methyl-2,3-dihydro-isoindol-1-one], with 28 nM.
